# Assay results: patent publication US20260070945A1, “MACROCYCLIC IMMUNOMODULATORS” (Bristol-Myers Squibb Company, priority 2022, published 2026)
# *1 amine or outer side, *2 acyl side, *3 side chain or, on linkers, in order; H or OH if unused. Where a SMILES comes first, the peptide text is derived from it. Bridges are numbered along the chain shown (N, C = ends). [ ]: non-standard residue; d: D form. The star is where a group is joined. ξ: configuration not given here. Phe(3-CF3) = N[C@@H](Cc1cccc(C(F)(F)F)c1)C(=O)O; Phe(4-COOH) = N[C@@H](Cc1ccc(C(=O)O)cc1)C(=O)O; Bip = N[C@@H](Cc1ccc(-c2ccccc2)cc1)C(=O)O; Phe(3-Me) = Cc1cccc(C[C@H](N)C(=O)O)c1; Phe(4-F) = N[C@@H](Cc1ccc(F)cc1)C(=O)O; γGlu = O=C(O)[C@H](CCC(=O)[*:2])N[*:1]; Abu(3S-NH2) = C[C@H](N)[C@H](N)C(=O)O; NH(CH2)12COOH = O=C(O)CCCCCCCCCCCCN*; Val(3-OH) = CC(C)(O)[C@H](N)C(=O)O; hArg = N=C(N)NCCCC[C@H](N)C(=O)O; 4Pal = N[C@@H](Cc1ccncc1)C(=O)O; Cha = N[C@@H](CC1CCCCC1)C(=O)O; Cit = NC(=O)NCCC[C@H](N)C(=O)O; Ile(3ξ) = CCC(C)[C@H](N)C(=O)O; Thr(3ξ) = CC(O)[C@H](N)C(=O)O; hSer = N[C@@H](CCO)C(=O)O; Carboxymethyl = O=C(O)C*; NMeA = CN[C@@H](C)C(=O)O; Orn = NCCC[C@H](N)C(=O)O; Aun = NCCCCCCCCCCC(=O)O; Dab = NCC[C@H](N)C(=O)O; Dap = NC[C@H](N)C(=O)O; AEEA = NCCOCCOCC(=O)O
# Target: T1, PD-1/PD-L1 interaction (PE-labeled human PD-L1-Ig binding to Jurkat cell line over-expressing human PD-1) (Homo sapiens, UniProt Q15116)
# T1 construct: expressed in transfected cells; host or cells: Jurkat
# T1 sequence (Q15116 25-288): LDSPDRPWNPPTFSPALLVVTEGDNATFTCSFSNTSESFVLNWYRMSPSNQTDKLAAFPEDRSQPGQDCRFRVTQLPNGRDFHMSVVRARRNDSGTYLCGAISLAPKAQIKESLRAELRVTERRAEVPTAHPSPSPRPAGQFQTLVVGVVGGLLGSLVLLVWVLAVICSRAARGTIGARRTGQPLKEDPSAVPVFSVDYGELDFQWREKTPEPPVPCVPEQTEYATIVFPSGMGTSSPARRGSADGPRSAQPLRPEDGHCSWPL
# Assay: Jurkat-PD-1 Cell Binding High-Content Screening Assay (CBA)
# Conditions: Jurkat-hPD-1 cells, PE-labeled PD-L1-Ig 20 nM final; read-out: Jurkat HPD1 PDL1 IC50
# How it was run: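 In this imaging assay, cells in 10% FCS medium see compound for 2 h at 37 °C and then labeled ligand at 20 nM final for 1 h. Paraformaldehyde fixation, Hoechst 33342 staining and dPBS washes precede image capture.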
row,Structure (SMILES),IC50
1,CC(C)C[C@@H]1NC(=O)[C@H](Cc2c[nH]c3ccccc23)NC(=O)[C@H](CC(=O)O)NC(=O)[C@H](Cc2c[nH]cn2)NC(=O)[C@H](CCCCNC(=N)N)NC(=O)CSC[C@@H](C(=O)N[C@@H](CCN)C(=O)NCCCCCCCCCCC(=O)O)NC(=O)[C@H](CCCN)NC(=O)[C@H](C(C)C)NC(=O)[C@H](CC2CCCCC2)NC(=O)[C@H](CCN)NC(=O)[C@@H](CC(C)C)NC(=O)[C@H](C)N(C)C(=O)[C@H](C(C)C)NC(=O)[C@H](Cc2ccc(-c3ccccc3)cc2)NC1=O [Example 2195] ({CH2CO}-[hArg]HDWL[Bip]V[NMeA][dL][Dab][Cha]V[Orn]C[Dab][Aun]-OH; thioether N-14),80.3 nM
2,Cc1cccc(C[C@@H]2NC(=O)[C@H](CC(=O)O)NC(=O)[C@H](Cc3ccc(O)cc3)NC(=O)[C@H](Cc3ccccc3)NC(=O)CSC[C@@H](C(=O)N[C@@H](CCN)C(=O)NCCCCCCCCCCC(=O)O)NC(=O)[C@H](CCCN)NC(=O)[C@H](C(C)C)NC(=O)[C@H](CC(C)C)NC(=O)[C@H](CCN)NC(=O)[C@@H](C)NC(=O)[C@H](C)N(C)C(=O)[C@H](C(C)C)NC(=O)[C@H](Cc3ccc(-c4ccccc4)cc3)NC(=O)[C@H](CC(C)C)NC2=O)c1 [Example 2198] ({CH2CO}-FYD[Phe(3-Me)]L[Bip]V[NMeA][dA][Dab]LV[Orn]C[Dab][Aun]-OH; thioether N-14),73 nM
3,CC(=O)NCCCC[C@@H]1NC(=O)[C@H](C(C)(C)O)NC(=O)[C@H](CC2CCCCC2)NC(=O)[C@H](CCN)NC(=O)[C@@H](CC(C)C)NC(=O)[C@H](C)N(C)C(=O)[C@H](CCC(N)=O)NC(=O)[C@H](Cc2ccc(-c3ccccc3)cc2)NC(=O)[C@H](Cc2ccc(C(=O)O)cc2)NC(=O)[C@H](Cc2cccc(C(F)(F)F)c2)NC(=O)[C@H](CC(=O)O)NC(=O)[C@H](Cc2ccc(OCC(=O)O)cc2)NC(=O)[C@H]([C@H](C)N)NC(=O)CSC[C@@H](C(=O)N[C@@H](CCN)C(=O)NCCOCCOCC(=O)N[C@@H](CCC(=O)NCCOCCOCC(=O)NCCCCCCCCCCCCC(=O)O)C(=O)O)NC1=O [Example 1202] ({CH2CO}-[Abu(3S-NH2)]Y(Carboxymethyl)D[Phe(3-CF3)][Phe(4-COOH)][Bip]Q[NMeA][dL][Dab][Cha][Val(3-OH)]K(Ac)C[Dab][AEEA][γGlu][AEEA]-{NH(CH2)12COOH}; thioether N-14),16 nM
4,CC(C)C[C@H]1NC(=O)[C@H](C)N(C)C(=O)[C@H](Cc2ccc(OCC(=O)O)cc2)NC(=O)[C@H](Cc2ccc(-c3ccccc3)cc2)NC(=O)[C@H](Cc2ccc(OCC(=O)O)cc2)NC(=O)[C@H](Cc2c[nH]c3ccccc23)NC(=O)[C@H](CC(=O)O)NC(=O)[C@H](Cc2ccc(OCC(=O)O)cc2)NC(=O)[C@H]([C@@H](C)O)NC(=O)CSC[C@@H](C(=O)N[C@@H](CCN)C(=O)NCCOCCOCC(=O)NCCCCCCCCCCC(=O)O)NC(=O)[C@H]([C@@H](C)O)NC(=O)[C@H](C(C)C)NC(=O)[C@H](CC2CCCCC2)NC(=O)[C@H](CC(N)=O)NC1=O [Example 1383] ({CH2CO}-TY(Carboxymethyl)DWY(Carboxymethyl)[Bip]Y(Carboxymethyl)[NMeA][dL]N[Cha]VTC[Dab][AEEA][Aun]-OH; thioether N-14),101 nM
5,CC(C)C[C@@H]1NC(=O)[C@H](Cc2c[nH]c3ccccc23)NC(=O)[C@H](CC(=O)O)NC(=O)[C@H](Cc2ccc(OCC(=O)O)cc2)NC(=O)[C@H](CCCNC(=N)N)NC(=O)CSC[C@@H](C(=O)N[C@@H](CCCN)C(=O)NCCOCCOCC(=O)NCCCCCCCCCCC(=O)O)NC(=O)[C@H](CO)NC(=O)[C@H](C(C)C)NC(=O)[C@H](CC2CCCCC2)NC(=O)[C@H](CCN)NC(=O)[C@@H](CC(C)C)NC(=O)[C@H](C)N(C)C(=O)[C@H](C(C)C)NC(=O)[C@H](Cc2ccc(-c3ccccc3)cc2)NC1=O [Example 2139] ({CH2CO}-RY(Carboxymethyl)DWL[Bip]V[NMeA][dL][Dab][Cha]VSC[Orn][AEEA][Aun]-OH; thioether N-14),10.9 nM
6,CC(C)C[C@@H]1NC(=O)[C@H](Cc2c[nH]c3ccccc23)NC(=O)[C@H](CC(=O)O)NC(=O)[C@H](Cc2ccc(C(=O)O)cc2)NC(=O)[C@H](Cc2ccc(OCC(=O)O)cc2)NC(=O)CSC[C@@H](C(=O)N[C@@H](CCCN)C(=O)NCCOCCOCC(=O)NCCCCCCCCCCC(=O)O)NC(=O)[C@H](CCCN)NC(=O)[C@H](C(C)C)NC(=O)[C@H](CC2CCCCC2)NC(=O)[C@H](CC(N)=O)NC(=O)[C@@H](CC(C)C)NC(=O)[C@H](C)N(C)C(=O)[C@H](C(C)C)NC(=O)[C@H](Cc2ccc(-c3ccccc3)cc2)NC1=O [Example 2144] ({CH2CO}-Y(Carboxymethyl)[Phe(4-COOH)]DWL[Bip]V[NMeA][dL]N[Cha]V[Orn]C[Orn][AEEA][Aun]-OH; thioether N-14),19.3 nM
7,CC(C)C[C@@H]1NC(=O)[C@H](Cc2c[nH]c3ccccc23)NC(=O)[C@H](CC(=O)O)NC(=O)[C@H](Cc2ccc(OCC(=O)O)cc2)NC(=O)[C@H](CCCCNC(=N)N)NC(=O)CSC[C@@H](C(=O)NCCOCCOCC(=O)N[C@@H](CCCNC(N)=O)C(=O)NCCCCCCCCCCC(=O)O)NC(=O)[C@H](CCCNC(N)=O)NC(=O)[C@H](C(C)C)NC(=O)[C@H](CC2CCCCC2)NC(=O)[C@H](CCN)NC(=O)[C@@H](CC(C)C)NC(=O)[C@H](C)N(C)C(=O)[C@H](C(C)C)NC(=O)[C@H](Cc2ccc(-c3ccccc3)cc2)NC1=O [Example 2183] ({CH2CO}-[hArg]Y(Carboxymethyl)DWL[Bip]V[NMeA][dL][Dab][Cha]V[Cit]C[AEEA][Cit][Aun]-OH; thioether N-14),19.2 nM
8,CCC(C)[C@@H]1NC(=O)[C@H](Cc2ccc(-c3ccccc3)cc2)NC(=O)[C@H](CC(C)C)NC(=O)[C@H](Cc2c[nH]c3ccccc23)NC(=O)[C@H](CC(=O)O)NC(=O)[C@H](Cc2ccc(O)cc2)NC(=O)[C@H](CC(N)=O)NC(=O)CSC[C@@H](C(=O)N[C@@H](C)C(=O)NCCOCCOCC(=O)N[C@@H](CCCN)C(=O)NCCCCCCCCCCC(=O)O)NC(=O)[C@H](CO)NC(=O)[C@H](C(C)C)NC(=O)[C@H](CC2CCCCC2)NC(=O)[C@H](CC(N)=O)NC(=O)[C@@H](CC(C)C)NC(=O)[C@H](C)N(C)C1=O (stereo partly drawn) [Example 2076] ({CH2CO}-NYDWL[Bip][Ile(3ξ)][NMeA][dL]N[Cha]VSCA[AEEA][Orn][Aun]-OH; thioether N-14),54.3 nM
9,CCC(C)[C@@H]1NC(=O)[C@H](Cc2ccc(-c3ccccc3)cc2)NC(=O)[C@H](CC(C)C)NC(=O)[C@H](Cc2c[nH]c3ccccc23)NC(=O)[C@H](CC(=O)O)NC(=O)[C@H](Cc2ccc(C(=O)O)cc2)NC(=O)[C@H](Cc2ccc(OCC(=O)O)cc2)NC(=O)CSC[C@@H](C(=O)NCCOCCOCC(=O)N[C@@H](CN)C(=O)NCCCCCCCCCCC(=O)O)NC(=O)[C@H](CO)NC(=O)[C@H](C(C)C)NC(=O)[C@H](CC2CCCCC2)NC(=O)[C@H](CCN)NC(=O)[C@@H](CC(C)C)NC(=O)[C@H](C)N(C)C1=O (stereo partly drawn) [Example 2074] ({CH2CO}-Y(Carboxymethyl)[Phe(4-COOH)]DWL[Bip][Ile(3ξ)][NMeA][dL][Dab][Cha]VSC[AEEA][Dap][Aun]-OH; thioether N-14),9.9 nM

# Other lines, results leading:
row,IC50,Structure (SMILES)
1,20.6 nM,CCC(C)[C@@H]1NC(=O)[C@H](Cc2ccc(-c3ccccc3)cc2)NC(=O)[C@H](CC(C)C)NC(=O)[C@H](Cc2cccc(C)c2)NC(=O)[C@H](CC(=O)O)NC(=O)[C@H](Cc2ccc(O)cc2)NC(=O)[C@H](Cc2ccncc2)NC(=O)CSC[C@@H](C(=O)N[C@@H](CCN)C(=O)NCCCCCCCCCCC(=O)O)NC(=O)[C@H](CCCCN)NC(=O)[C@H](C(C)C)NC(=O)[C@H](CC(C)C)NC(=O)[C@H](CCN)NC(=O)[C@@H](C)NC(=O)[C@H](C)N(C)C1=O (stereo partly shown) [Example 2200] ({CH2CO}-[4Pal]YD[Phe(3-Me)]L[Bip][Ile(3ξ)][NMeA][dA][Dab]LVKC[Dab][Aun]-OH; thioether N-14)
2,11.5 nM,Cc1cccc(C[C@@H]2NC(=O)[C@H](CC(=O)O)NC(=O)[C@H](Cc3ccc(C(=O)O)cc3)NC(=O)[C@H](Cc3ccc(OCC(=O)O)cc3)NC(=O)CSC[C@@H](C(=O)NCCOCCOCC(=O)NCCCCCCCCCCC(=O)O)NC(=O)[C@H](CCO)NC(=O)[C@H](C(C)C)NC(=O)[C@H](CC3CCCCC3)NC(=O)[C@H](CCN)NC(=O)[C@@H](CC(C)C)NC(=O)[C@H](C)N(C)C(=O)[C@H](C(C)C)NC(=O)[C@H](Cc3ccc(-c4ccccc4)cc3)NC(=O)[C@H](C(C)C)NC2=O)c1 [Example 2217] ({CH2CO}-Y(Carboxymethyl)[Phe(4-COOH)]D[Phe(3-Me)]V[Bip]V[NMeA][dL][Dab][Cha]V[hSer]C[AEEA][Aun]-OH; thioether N-14)

# Same assay, conditions: PE-labeled PD-L1-Ig 20 nM final, Jurkat-hPD-1 cells; read-out: Jurkat HPD1 PDL1 IC50
row,IC50,Structure (SMILES)
1,2.1 nM,Cc1cccc(C[C@@H]2NC(=O)[C@H](CC(=O)O)NC(=O)[C@H](Cc3ccc(OCC(=O)O)cc3)NC(=O)[C@H](Cc3ccc(F)cc3)NC(=O)CSC[C@@H](C(=O)N[C@@H](CCN)C(=O)NCCOCCOCC(=O)NCCCCCCCCCCC(=O)O)NC(=O)[C@H](CCC(=O)O)NC(=O)[C@H](C(C)C)NC(=O)[C@H](CC3CCCCC3)NC(=O)[C@H](CCN)NC(=O)[C@@H](CC(C)C)NC(=O)[C@H](C)N(C)C(=O)[C@H](Cc3ccc(OCC(=O)O)cc3)NC(=O)[C@H](Cc3ccc(-c4ccccc4)cc3)NC(=O)[C@H](Cc3ccc(OCC(=O)O)cc3)NC2=O)c1 [Example 2560] ({CH2CO}-[Phe(4-F)]Y(Carboxymethyl)D[Phe(3-Me)]Y(Carboxymethyl)[Bip]Y(Carboxymethyl)[NMeA][dL][Dab][Cha]VEC[Dab][AEEA][Aun]-OH; thioether N-14)
2,8.7 nM,Cc1cccc(C[C@@H]2NC(=O)[C@H](CC(=O)O)NC(=O)[C@H](Cc3ccc(OCC(=O)O)cc3)NC(=O)[C@H](C(C)O)NC(=O)CSC[C@@H](C(=O)N[C@@H](CCN)C(=O)NCCOCCOCC(=O)NCCCCCCCCCCC(=O)O)NC(=O)[C@H](Cc3cnc[nH]3)NC(=O)[C@H](C(C)(C)O)NC(=O)[C@H](CC3CCCCC3)NC(=O)[C@H](CCN)NC(=O)[C@@H](CC(C)C)NC(=O)[C@H](C)N(C)C(=O)[C@H](Cc3ccc(OCC(=O)O)cc3)NC(=O)[C@H](Cc3ccc(-c4ccccc4)cc3)NC(=O)[C@H](Cc3ccc(OCC(=O)O)cc3)NC2=O)c1 (stereo partly drawn) [Example 2470] ({CH2CO}-[Thr(3ξ)]Y(Carboxymethyl)D[Phe(3-Me)]Y(Carboxymethyl)[Bip]Y(Carboxymethyl)[NMeA][dL][Dab][Cha][Val(3-OH)]HC[Dab][AEEA][Aun]-OH; thioether N-14)
